# Legend:
# [1] = biological target: T1, C-C chemokine receptor type 1 (Homo sapiens, UniProt P32246); assay: Inhibition of CCL3 binding to C-C chemokine receptor type 1
# T1 sequence (P32246 whole entry): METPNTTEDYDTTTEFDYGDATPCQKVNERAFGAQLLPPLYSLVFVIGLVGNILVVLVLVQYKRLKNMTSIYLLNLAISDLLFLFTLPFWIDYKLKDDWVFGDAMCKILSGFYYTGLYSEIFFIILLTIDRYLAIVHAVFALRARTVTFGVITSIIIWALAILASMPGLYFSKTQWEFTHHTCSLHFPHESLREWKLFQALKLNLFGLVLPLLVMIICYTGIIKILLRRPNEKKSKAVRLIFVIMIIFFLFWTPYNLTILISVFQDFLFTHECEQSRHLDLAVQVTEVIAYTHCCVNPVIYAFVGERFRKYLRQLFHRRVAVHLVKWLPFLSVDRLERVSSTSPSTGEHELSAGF
# [2] = system: THP-1; assay: Inhibition of CCL3 induced chemotaxis in THP-1 cells; assay type: functional, cell-based; details: Homo sapiens
# [3] = species: Homo sapiens; assay: Compound inhibits CCL3 induced CD11b up-regulation on monocytes in human whole blood; assay type: functional, organism-based
# [4] = system: THP-1; assay: Inhibition of CCL3 induced chemotaxis in THP-1 cells; Not active; assay type: functional, cell-based, Homo sapiens
SMILES,IC50 [1],IC50 [2],IC50 [3],IC50 [4]
CNC(=O)[C@H](CC(C)C)C[C@H](O)[C@H](Cc1ccccc1)NC(=O)c1cc2ccccc2nc1O,16700 nM,> 25000 nM,,
CC(C)CCC[C@H](C[C@H](O)[C@H](Cc1ccccc1)NC(=O)c1cnc2ccccc2n1)C(N)=O,420 nM,69 nM,,
CNC(=O)[C@H](CC(C)C)C[C@H](O)[C@H](Cc1ccc(Cl)c(Cl)c1)NC(=O)c1cnc2ccccc2n1,160 nM,150 nM,,
CNC(=O)[C@H](CC(C)C)C[C@H](O)[C@H](Cc1ccccc1)NC(=O)c1ccc2ncccc2c1,2490 nM,3300 nM,,
CNC(=O)[C@H](CC(C)C)C[C@H](O)[C@H](Cc1ccccc1)NC(=O)c1cncc2ccccc12,5150 nM,6600 nM,,
CNC(=O)[C@H](CC(C)C)C[C@H](O)[C@H](Cc1ccc(OC)cc1)NC(=O)c1cnc2ccccc2n1,2900 nM,2000 nM,,
CNC(=O)[C@H](CC(C)C)C[C@H](O)[C@H](Cc1ccccc1)NC(=O)c1cnnc2ccccc12,2570 nM,1100 nM,,
NC(=O)[C@H](CC1CCCC1)C[C@H](O)[C@H](Cc1ccccc1)NC(=O)c1cnc2ccccc2n1,48 nM,12 nM,,
NC(=O)[C@H](CCO)C[C@H](O)[C@H](Cc1ccccc1)NC(=O)c1cnc2ccccc2n1,4600 nM,> 25000 nM,,
CC(C)CC[C@H](C[C@H](O)[C@H](Cc1ccccc1)NC(=O)c1cnc2ccccc2n1)C(N)=O,28 nM,2 nM,,
NC(=O)[C@@H](C[C@H](O)[C@H](Cc1ccccc1)NC(=O)c1cnc2ccccc2n1)C1CCOCC1,3500 nM,12500 nM,,
NC(=O)[C@@H](C[C@H](O)[C@H](Cc1ccccc1)NC(=O)c1cnc2ccccc2n1)C1CCCCC1,8 nM,5 nM,,
CNC(=O)[C@H](CC(C)C)C[C@H](O)[C@H](CC1CCCCC1)NC(=O)c1cnc2ccccc2c1,,840 nM,~5000 nM,
CNC(=O)[C@H](CC(C)C)C[C@H](O)[C@H](Cc1ccccc1)NC(=O)c1cnc2ccccc2c1,,460 nM,,
CNC(=O)[C@H](CC(C)C)C[C@H](O)[C@H](Cc1ccccc1)NC(=O)c1ccnc2ccccc12,18500 nM,4300 nM,,
CNC(=O)[C@H](CC(C)C)C[C@H](O)[C@H](Cc1ccccc1)NC(=O)c1cncc(Br)c1,510 nM,,,Not Active
CNC(=O)[C@H](CC(C)C)C[C@H](O)[C@H](Cc1ccc(F)cc1)NC(=O)c1cnc2ccccc2n1,2600 nM,3000 nM,,

SMILES,IC50 [1],IC50 [2],IC50 [3],IC50 [4]
NC(=O)[C@@H](C[C@H](O)[C@H](Cc1ccccc1)NC(=O)c1cnc2ccccc2n1)C1CCCC1,26 nM,28 nM,,
CNC(=O)[C@H](CC(C)C)C[C@H](O)[C@H](Cc1ccccc1)NC(=O)c1ccc2ccccc2c1,10300 nM,> 25000 nM,,
CNC(=O)[C@H](CC(C)C)C[C@H](O)[C@H](Cc1ccccc1)NC(=O)c1cccc2cccnc12,> 32000 nM,> 25000 nM,,
CNC(=O)[C@H](CC(C)C)C[C@H](O)[C@H](Cc1ccccc1)NC(=O)c1nccc2ccccc12,580 nM,2400 nM,,
CNC(=O)[C@H](CC(C)C)C[C@H](O)[C@H](CC1CCCCC1)NC(=O)c1cnc2ccccc2n1,670 nM,560 nM,,
CNC(=O)[C@H](CC(C)C)C[C@H](O)[C@H](Cc1ccccc1)NC(=O)c1cnc2ccccc2n1,64 nM,64 nM,,
CC1CC([C@H](C[C@H](O)[C@H](Cc2ccccc2)NC(=O)c2cnc3ccccc3n2)C(N)=O)CC(C)O1 (stereo not given in full),15 nM,5 nM,,
CNC(=O)[C@H](CCC(C)C)C[C@H](O)[C@H](Cc1ccccc1)NC(=O)c1cnc2ccccc2n1,22 nM,8 nM,,
CC[C@H](C)[C@H](NC(=O)c1cnc2ccccc2n1)[C@@H](O)C[C@@H](CC(C)C)C(=O)NC,4200 nM,,,Not Active
CNC(=O)[C@H](CC(C)C)C[C@H](O)[C@H](Cc1ccccc1)NC(=O)c1ccc2ccccc2n1,130 nM,890 nM,,
CNC(=O)[C@H](CC(C)C)C[C@H](O)[C@H](Cc1ccccc1)NC(=O)c1cnccn1,> 32000 nM,> 25000 nM,,
CN(C)CC[C@H](C[C@H](O)[C@H](Cc1ccccc1)NC(=O)c1cnc2ccccc2n1)C(N)=O,55100 nM,> 25000 nM,,
CC1(C)CC([C@H](C[C@H](O)[C@H](Cc2ccccc2)NC(=O)c2cnc3ccccc3n2)C(N)=O)CC(C)(C)C1,44800 nM,4600 nM,,
CNC(=O)[C@H](CC(C)C)C[C@H](O)[C@H](Cc1ccc(O)cc1)NC(=O)c1cnc2ccccc2n1,610 nM,1300 nM,,
CNC(=O)[C@H](CC(C)C)C[C@H](O)[C@H](Cc1ccccc1)NC(=O)c1cccnc1,> 32000 nM,> 25000 nM,,
NC(=O)[C@H](Cc1ccccc1)C[C@H](O)[C@H](Cc1ccccc1)NC(=O)c1cnc2ccccc2n1,280 nM,120 nM,,
